Data on five molecules can be found in US10266564B2, “Cationic lipid cordiarimide hybrid compounds and a process for preparation thereof” (COUNCIL OF SCIENTIFIC & INDUSTRIAL RESEARCH, priority 2014, dated 2019).

Data set [1] deals with PC-3 (human prostate cancer cells). Kind of data set: MTT assay for cell viability, PC-3. It is filed as cell-based. The following applies: Homo sapiens, 48 h. How it is done: (§1) The human cancer cell lines e.g. HepG2 (hepatocellular carcinoma, ATCC® HB-8065™), PC-3 (human prostate cancer cells, ATCC® CRL-1435™), MCF-7 (breast adenocarcinoma, ATCC® […]), and mouse embryo fibroblasts (NIH/3T3, ATCC® CRL-1658™), used in the present study were obtained from the ATCC (American Type Culture Collection, USA and maintained in RPMI 1640 (Roswell Park Memorial Institute, Merck) with 10% FBS (Merck), supplemented with 1% antibiotic and antimycotic solution (Gibco, USA) at 37° C. in a humidified incubator with 5% CO2. All stock solutions of the compounds were prepared in cell culture grade DMSO (dimethyl sulfoxide) and stored at −20° C. Compounds were diluted in culture media prior to use in experiments. Annexin V-FITC apoptosis detection kits were purchased from Calbiochem. MTT dye was procured from Sigma-Aldrich. All the flow cytometry experiments were performed using a FACScan (Becton Dickinson, Mountain View, Calif.) flow cytometer, equipped with a single 488 nm argon laser.
(§2) Cell viability was assessed by MTT assay, which is based on the reduction of MTT by mitochondrial dehydrogenases of viable cells to form a purple formazan product. Briefly, cells (5-6×10^3/well) were plated in 96 well plates. After incubating overnight, the cells were treated with […] different concentrations (100, 50, 20, 10, 5, 2.5, 1.25 μM) in triplicates with the cationic lipidated cordiarimide and intermediates for 48 h. Subsequently, 10 μL of MTT (10 mg/mL) was added to each well and incubated for 3 h. The MTT formazan formed by viable cells was dissolved in 100 μL of DMSO and shaken for 10 min. The absorbance was measured on an ELISA reader. Each test was repeated at least three times. The concentration of the compound which gives the 50% growth inhibition value corresponding to IC50, was calculated using GraphPad prism 5 software. In the present invention we have screened 26 lipidated cordiarimides and the results are described in table 1.

Data set [2] deals with HepG2 (hepatocellular carcinoma). The experiment in a line: MTT assay for cell viability, HepG2. It is filed as cell-based, human. As to conditions: Homo sapiens, HepG2, 48 h. How it is done: as §1, §2
The subject of data set [3] is MCF-7 (breast adenocarcinoma). The experiment in a line: MTT assay for cell viability, MCF-7. It is filed as cell-based, human. As to conditions: Homo sapiens, MCF7, 48 h. How it is done: as §1, §2
For data set [4], the system named is mouse embryo fibroblasts (NIH/3T3). The experiment in a line: MTT assay for cell viability, NIH/3T3. It is filed as cell-based. As to conditions: NIH3T3, 48 h. As for the experimental part:
as §1, §2

The test system of data set [5] is HepG2, NH/3T3, PC-3, MCF-7 cell lines. Kind of data set: MTT assay, summary over the cell line panel. It is filed as cell-based. As to conditions: across tested cell lines. How it is done: as §1, §2
Data set [6] has as its system HepG2 cells. The experiment in a line: Apoptosis, annexin V/PI staining by flow cytometry. It is filed as cell-based, human. The following applies: HepG2, 24 h. How it is done: Quantitation of apoptotic cells by annexin V staining was carried out according to the manufacturer's instructions. Briefly, cells (5×10^5 cells/well) were seeded in 6 well plates and treated with 5 μM of 8h-8k for 24 h. After incubation, cells were washed with PBS and stained with 1.25 μL of annexin V-FITC and 10 μL of media binding reagent and incubated for 20 min. After that 10 μL of PI was added and samples were analyzed using a flow cytometer. Annexin V-FITC was analyzed using excitation and emission settings of 488 nm and 535 nm (FL-1 channel); PI, 488 nm and 610 nm (FL-2 channel). Debris and clumps were gated out using forward and orthogonal light scatter. Each experiment was repeated two times independently. Results are illustrated in FIG. 1 and the percentage of Annexin-V/PI positive cells increased gradually from 20 to 70% after 24 h of treatment (FIG. 1).

The subject of data set [7] is HepG2 cells. Kind of data set: Cell cycle analysis, PI staining by flow cytometry. It is filed as cell-based, human. The following applies: HepG2, 24 h, 5, 10, and 20 mM as printed. As for the experimental part: For cell cycle distribution studies after treatment with different molar concentrations of 8i and 8k, HepG2 cells were fixed overnight in 70% ethanol, rehydrated in PBS with ribonuclease A (100 μg/ml) and Triton-X (1%) for 30 min at room temperature then PI (at 50 μg/ml) was added and incubated in the dark for 30 min and analyzed with a flow cytometer. Experiments were repeated two times independently.

In data set [8] the test system is caspase-3 in HepG2 cells. The experiment in a line: Caspase-3 colorimetric activation assay. It is filed as cell-based, human. As to conditions: HepG2, 5 and 10 μM, 24 h. As for the experimental part:
The activity of caspase-3 was determined using a caspase-3 colorimetric assay kit (Sigma Aldrich) according to the manufacturer's protocol. Briefly, HepG2 cells (1×10^6 cells/well) were treated with 5 and 10 μM of 8i and 8k for 24 h. The cells were harvested and lysed by addition of lysis buffer. Cell lysates were mixed with colorimetric substrate (Ac-DEVD-pNA) and incubated at 37° C. in the dark for 4 h. The absorbance was measured at 405 nm in an ELISA reader. Caspase-3 activity was expressed as the change of the activity compared to the control (FIG. 3).

Data set [9] has as its target human ligase I (Homo sapiens, UniProt P18858). The experiment in a line: Ligation assay, DNA ligase I. It is filed as biochemical. The following applies: screening, FIG. 4 and FIG. 7. An excerpt: The ligation assay was done strictly following the assay protocol described in Xi Chen et. al, Cancer Res 2008; 68(9):3169-3177. The DNA molecules 52 mer (5′-3′), 28-mer (5′-3′) and 34-mer (5′-3′) were used to construct a double stranded nicked substrate for the ligase enzyme (FIG. 4). The 34-mer oligo was labelled with 32P-AMP to form a substrate for ligase and to form a ligase-AMP intermediate. During ligation, the ligase would transfer the AMP to the nick forming a phosphodiester bond and seal the nick. The ligated DNA molecule would be larger in size and run higher up on a 7% Urea-containing denaturing acrylamide gel. If an inhibitor is added to the reaction mixture prior to the addition of ligase, this would lead to an inhibition of ligation and a corresponding loss of labelled ligated product in the gel. We would then be able to calculate the percentage of inhibition of ligation by estimating the amount of ligated product in the lane with no inhibitor and comparing it with the lanes containing different inhibitor molecules or with the same inhibitor molecule at different concentrations.

Data set [10] concerns MOLT-3. As to conditions: according to Kittakoop et al.; cited from earlier work.
Data set [11] deals with HepG2. The following applies: according to Kittakoop et al.; cited from earlier work.
In data set [12] the test system is A549. The following applies: according to Kittakoop et al.; cited from earlier work.
The subject of data set [13] is HuCCA-1. The following applies: according to Kittakoop et al.; cited from earlier work.

Each structure is given as a SMILES string. pIC50: −log10 of the molar value. “Also recorded” adds a separate entry of the source.

human ligase I, sequence (P18858 whole entry): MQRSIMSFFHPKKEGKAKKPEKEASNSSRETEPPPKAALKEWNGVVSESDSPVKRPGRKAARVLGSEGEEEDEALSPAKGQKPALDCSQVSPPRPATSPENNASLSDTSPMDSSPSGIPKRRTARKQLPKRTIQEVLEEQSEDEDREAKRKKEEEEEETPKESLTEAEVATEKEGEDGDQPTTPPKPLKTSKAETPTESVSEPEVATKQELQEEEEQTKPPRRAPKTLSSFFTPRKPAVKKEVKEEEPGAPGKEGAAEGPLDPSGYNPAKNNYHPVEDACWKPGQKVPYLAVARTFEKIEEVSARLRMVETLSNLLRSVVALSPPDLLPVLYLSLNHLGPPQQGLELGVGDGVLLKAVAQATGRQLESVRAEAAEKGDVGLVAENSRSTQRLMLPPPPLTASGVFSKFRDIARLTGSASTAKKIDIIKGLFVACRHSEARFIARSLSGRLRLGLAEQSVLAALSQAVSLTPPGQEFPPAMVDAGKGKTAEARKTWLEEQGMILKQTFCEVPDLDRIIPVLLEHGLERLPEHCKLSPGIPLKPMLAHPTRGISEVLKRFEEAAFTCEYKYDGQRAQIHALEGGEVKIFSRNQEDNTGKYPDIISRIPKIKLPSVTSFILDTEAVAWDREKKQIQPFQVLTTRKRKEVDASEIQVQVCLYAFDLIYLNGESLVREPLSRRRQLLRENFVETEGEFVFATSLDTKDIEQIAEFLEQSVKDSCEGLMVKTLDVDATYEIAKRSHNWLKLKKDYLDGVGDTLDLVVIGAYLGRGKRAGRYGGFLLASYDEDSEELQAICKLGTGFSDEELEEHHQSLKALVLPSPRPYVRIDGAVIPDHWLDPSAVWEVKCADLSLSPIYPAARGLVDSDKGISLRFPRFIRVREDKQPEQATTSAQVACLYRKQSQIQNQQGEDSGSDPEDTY

With `CCCCCCCCCC[N+](C)(CCCCCCCCCC)CC(=O)NC1CCC(=O)N(CC(=O)c2ccccc2)C1=O` (stereo not shown) [Compound 8i, Bis-decyl-{[2,6-dioxo-1-(2-oxo-2-phenyl-ethyl)-piperidin-3-ylcarbamoyl]-methyl}-methyl-ammonium iodide], the pIC50 was 5.37 in data set [1], 5.51 in [2], 5.28 in [3] and 5.67 in data set [4]. The “antiproliferative / anticancer activity (in words)” value in [5] is recorded as “very good anticancer activity without selectivity”. For the same molecule, the “apoptosis induction (in words)” value in data set [6] was “induced significant amount of apoptosis”. Besides, in [7], the “effect on cell cycle progression” value is reported as “did not altered cell cycle progression; also recorded: did not show any impact on cell cycle progression”. For the same molecule, the caspase-3 activation result in data set [8] is recorded as “activated the caspase-3 in HepG2 cells dose dependently; also recorded: activated the casepase-3 in HepG2 cells dose dependently”.
`CCCCCCCC[N+](C)(CCCCCCCC)CC(=O)NC1CCC(=O)N(CC(=O)c2ccccc2)C1=O` (stereo not shown) [Compound 8g, {[2,6-Dioxo-1-(2-oxo-2-phenyl-ethyl)-piperidin-3-ylcarbamoyl]-methyl}-Methyl-dioctyl-ammonium iodide]: the pIC50 in data set [1] is below 4.70; in data set [2] it was 5.47; in [3], 5.20; in data set [4], 5.26. Moreover, the “antiproliferative / anticancer activity (in words)” value in data set [5] is reported as “very good anticancer activity without selectivity”.
Take `CCCCCCCCCCCCCC[N+](C)(CCCCCCCCCCCCCC)CC(=O)NC1CCC(=O)N(CC(=O)c2ccccc2)C1=O` (stereo not shown) [Compound 8m, {[2,6-Dioxo-1-(2-oxo-2-phenyl-ethyl)-piperidin-3-ylcarbamoyl]-methyl}Methyl-ditetradecyl-ammonium iodide]: the pIC50 in [1], in data set [2], in [3] and in data set [4] was below 4.70 throughout. Moreover, in data set [9], the “DNA ligase I / ligation inhibition (in words)” value is “did not elicit any DNA ligase I inhibition”.
In the case of `CCCCCCCCCCCCC[N+](C)(CCCCCCCCCCCCC)CC(=O)NC1CCC(=O)N(CC(=O)c2ccccc2)C1=O` (stereo not shown) [Compound 8l, {[2,6-Dioxo-1-(2-oxo-2-phenyl-ethyl)-piperidin-3-ylcarbamoyl]-methyl}-Methyl-ditridecyl-ammonium iodide], the pIC50 in [1], in [2], in data set [3] and in data set [4] was below 4.70 throughout. Also, in [9], the “DNA ligase I / ligation inhibition (in words)” value was “did not elicit any DNA ligase I inhibition”.
For the molecule `CC(=O)NC1CCC(=O)N(CC(=O)c2ccccc2)C1=O` (stereo not shown) [Cordiarimide A], in data set [9], the “DNA ligase I / ligation inhibition (in words)” value is “did not show any ligation inhibition”. Also, the negative logarithm of the IC50 (pIC50) in [10] is 3.84. Further, the “cytotoxicity toward HepG2” value in data set [11] was “inactive”. The “cytotoxicity toward A549” value in data set [12] was “inactive”. Further, the “cytotoxicity toward HuCCA-1” value in [13] is “inactive”.
